Measurements taken from publication PMC3273674 (Biochimica et Biophysica Acta, 2011).
Where no end group is shown, it is not given here.

Test system: dsDNA ([…])
Experiment: DNA binding by fluorescence intercalator displacement
Details: C50 normalized compared to BF2

Compound | Relative C50
CC(C)C[C@H](NC(=O)CNC(=O)[C@H](C)NC(=O)[C@H](CCCNC(=N)N)NC(=O)[C@H](CO)NC(=O)[C@H](CO)NC(=O)[C@H](CCCNC(=N)N)NC(=O)[C@@H](N)[C@@H](C)O)C(=O)N[C@@H](CCC(N)=O)C(=O)N[C@@H](Cc1c[nH]c2ccccc12)C(=O)N1CCC[C@H]1C(=O)N[C@H](C(=O)NCC(=O)N[C@@H](CCCNC(=N)N)C(=O)N[C@H](C(=O)N[C@@H](Cc1c[nH]cn1)C(=O)N[C@@H](CCCNC(=N)N)C(=O)N[C@@H](CC(C)C)C(=O)N[C@@H](CC(C)C)C(=O)N[C@@H](CCCNC(=N)N)C(=O)N[C@@H](CCCCN)C(=O)O)C(C)C)C(C)C [BF2] | 1
KVLRDNIQGWTKPAIRRLARRG [DesHDAP3] | 1.09
